Experiments:
HCT116 = experiment: Cytotoxicity, sulforhodamine B (SRB) assay, HCT116; format: cell-based, human; conditions: 48 h
Excerpt: (§1) Human non-small cell lung cancer (NSCLC) cell lines (e.g., A549, H441GL and H1299), colon cancer cell lines (e.g., HCT116 and DLD1), breast cancer cell lines (e.g., MCF7 and MDA-MB-231), and pancreatic cancer cell lines (e.g., PANC-1 and SUIT-2) were used in cytotoxicity studies. These NSCLC cell lines have intrinsic resistance to epidermal growth factor receptor (EGFR) inhibitors, e.g., gefitinib. A549 and H441GL are EGFR-wild type adenocarcinoma cell lines. H1299 is an EGFR-wild type large cell carcinoma cell line. HCT116 and DLD1 are metastatic colon cell lines. MCF7 is a hormone-responsive breast cancer cell line. MDA-MB-231 is a triple-negative breast cancer cell line. PANC-1 is a metastatic adenocarcinoma cell line. SUIT-2 is a pancreatic ductal adenocarcinoma cell line.
(§2) All cell lines were grown and maintained in RPMI medium supplemented with 10% fetal bovine serum (FBS, Invitrogen), 2 mM L-glutamine, 100 U/mL penicillin, and 100 μg/mL streptomycin. For cell the culture experiment, stock solution (10 mM) of each test compound was dissolved in dimethyl sulfoxide (DMSO; Sigma).
(§3) Cells were plated in 96-well plates at a density of 2000 cells per well in triplicate. The cells in each well were treated on the third day (to ensure proper plating efficiency and vitality) with different concentrations (0-50 μM) of each test compound for 48 h.
(§4) Cell viability was assessed using the sulforhodamine B (SRB) assay. The medium was discarded, and the adherent cells were fixed by 100 μL of cold 10% trichloroacetic acid (w/v) in each well for 1 h at 4° C. After fixation, cells were stained with 100 μL/well of 0.4% (w/v, in 1% acetic acid) SRB solution for 30 min at room temperature, and then washed 5 times with 1% acetic acid. After air-drying, 100 μL of 10 mM Tris base was added to each well and the absorbance was read at 530 nm. Cytotoxicity is expressed as the percent of cells in drug treated wells relative to number of cells in the solvent only control (set to 100%). Each experiment was performed independently in triplicate and cytotoxicity IC50 value of each test compound was calculated from cytotoxicity data obtained at various concentrations.

MDA-MB-231 = experiment: Cytotoxicity, sulforhodamine B (SRB) assay, MDA-MB-231; format: cell-based, human; conditions: MDA-MB-231, Breast, 48 h
Excerpt: as §1, §2, §3, §4

PANC-1 = experiment: Cytotoxicity, sulforhodamine B (SRB) assay, PANC-1; format: cell-based, human; conditions: PANC-1, Pancreas, 48 h, NA = no activity
Excerpt: as §1, §2, §3, §4

DLD1 = experiment: Cytotoxicity, sulforhodamine B (SRB) assay, DLD1; format: cell-based, human; conditions: 48 h
Excerpt: as §1, §2, §3, §4

H441GL cells [1] = experiment: Study 1: tumor size in mouse lung cancer model; format: in vivo, NOD/SCID mice; conditions: Study 1, 5 mg/kg/day, 5 days/week, i.p.
Protocol: (§5) H441GL cells (1×10^6 cells in 100 μL phosphate-buffered saline/injection) were subcutaneously injected into the right flank of NOD/SCID mice (female, 4-6 weeks old). Mice were allowed 2 weeks for tumor growth. On the first day of Week 3 post injection, tumor-bearing mice were randomly divided into control group (DMSO vehicle, intraperitoneal (i.p.) injection) and test compound treatment groups (5 mg/kg/day, 5 days/week, i.p. injection). Over the period of 10 weeks, tumorigenesis in both groups was measured using a caliper on a weekly basis. The change in tumor size was expressed as in fold change from Week 3. In this study body weight of each mouse was also recorded at the end of each study week.

lung cancer cells = experiment: Cytotoxicity SRB assay, summary of Table 2; format: cell-based, Human; conditions: summary in words of Table 2
Excerpt: as §1, §3, §4
NA indicates no activity.

A549 = experiment: Cytotoxicity, sulforhodamine B (SRB) assay, A549; format: cell-based, Human; conditions: A549, 48 h, NA indicates no activity
Excerpt: as §1, with “These NSCLC cell lines have intrinsic resistance to epidermal growth factor receptor (EGFR) inhibitors, e.g., gefitinib.” left out
as §2, §3, §4

SUIT-2 = experiment: Cytotoxicity, sulforhodamine B (SRB) assay, SUIT-2; format: cell-based, human; conditions: SUIT-2, Pancreas, 48 h
Excerpt: as §1, §2, §3, §4

H441GL = experiment: Cytotoxicity, sulforhodamine B (SRB) assay, H441GL; format: cell-based, Human; conditions: 48 h, NA indicates no activity
Excerpt: as §1, with “These NSCLC cell lines have intrinsic resistance to epidermal growth factor receptor (EGFR) inhibitors, e.g., gefitinib.” left out
as §2, §3, §4

MCF7 = experiment: Cytotoxicity, sulforhodamine B (SRB) assay, MCF7; format: cell-based, human; conditions: MCF7, Breast, 48 h
Excerpt: as §1, §2, §3, §4

H1299 = experiment: Cytotoxicity, sulforhodamine B (SRB) assay, H1299; format: cell-based; conditions: Homo sapiens, NCI-H1299, H1299, 48 h
Excerpt: as §1, with “These NSCLC cell lines have intrinsic resistance to epidermal growth factor receptor (EGFR) inhibitors, e.g., gefitinib.” left out
as §2, §3, §4

H441GL cells [2] = experiment: Study 2: tumor size in mouse lung cancer model; format: in vivo, NOD/SCID mice; conditions: Study 2, 0.0127 mmol/kg daily, i.p.
Protocol: as §5
In this study, the daily dose was 0.0127 mmol/kg instead of 5 mg/kg.

[3] = Week 3 (baseline, start of treatment)
[4] = Homo sapiens, HCT-116, HCT116, Colon
[5] = Homo sapiens, DLD-1, DLD1, Colon

SMILES	inhibition of cell proliferation of lung cancer cells (lung cancer cells)	IC50 (MDA-MB-231; Homo sapiens)	IC50 (PANC-1; Homo sapiens)	IC50 (A549; Homo sapiens)	IC50 (SUIT-2; Homo sapiens)	IC50 (H441GL; Homo sapiens)	IC50 (MCF7; Homo sapiens)	IC50 (H1299)	IC50 (HCT116; [4])	IC50 (DLD1; [5])	further results
COCCOCCOCCOCCOCCOCCOCCOCCOCCOCCOCCOCCOC(=O)N1CCN(CCCN2c3ccccc3Sc3ccc(C(F)(F)F)cc32)CC1 [Compound 5-3b, NDT-CO—O—[CH2CH2O]12—CH3]	inhibit cell proliferation	–	–	–	–	–	–	–	–	–	IC50 (HCT116; HCT116, Colon): 7.9 µM; IC50 (MDA-MB-231): 9.2 µM; IC50 (PANC-1): 3.6 µM; IC50 (DLD1; DLD1, Colon): 18.2 µM; Tumor Size [Fold Change from Week 3 (Mean ± SD, n = 4)] Week 3 (H441GL cells [1]; [3]): 1 ± 0 Fold Change; Tumor Size [Fold Change from Week 3 (Mean ± SD, n = 4)] Week 9 (H441GL cells [1]; Week 9): 33.4 ± 8.2 Fold Change; Tumor Size [Fold Change from Week 3 (Mean ± SD, n = 4)] Week 13 (H441GL cells [1]; Week 13): 79.4 ± 20.3 Fold Change; IC50 (A549): 2.7 µM; IC50 (SUIT-2): 10.8 µM; IC50 (H441GL): 1.6 µM; IC50 (MCF7): 8.3 µM
COCC(COCC(COCC(CN1CCN(CCCN2c3ccccc3Sc3ccc(Cl)cc32)CC1)OC)OC)OC (stereo not shown) [Compound 24a, NDP-[CH2CH(OCH3)CH2O]3—CH3]	inhibit cell proliferation	17.6 µM	12.4 µM	11.7 µM	16.1 µM	19.1 µM	14.5 µM	14.2 µM	–	–	–
COCC(COCC(COCC(CN1CCN(CCCN2c3ccccc3Sc3ccc(C(F)(F)F)cc32)CC1)OC)OC)OC (stereo not shown) [Compound 24b, NDT-[CH2CH(OCH3)CH2O]3—CH3]	inhibit cell proliferation	11.3 µM	25.8 µM	11.8 µM	13.9 µM	21 µM	9.9 µM	10.9 µM	5.9 µM	11.8 µM	–
COCC(COCC(COCC(COCCOCCOCCN1CCN(CCCN2c3ccccc3Sc3ccc(Cl)cc32)CC1)OC)OC)OC (stereo not shown) [Compound 25-1a, NDP-[CH2CH2O]n—[CH2CH(OCH3)CH2O]3—CH3]	inhibit cell proliferation	12.7 µM	16.4 µM	12.7 µM	13 µM	13.3 µM	14.6 µM	13.1 µM	–	–	Tumor Size [Fold Change from Week 3 (Mean ± SD, n = 4)] Week 3 (H441GL cells [2]; [3]): 1 ± 0 Fold Change; Tumor Size [Fold Change from Week 3 (Mean ± SD, n = 4)] Week 9 (H441GL cells [2]; Week 9): 12.3 ± 2.0 Fold Change; Tumor Size [Fold Change from Week 3 (Mean ± SD, n = 4)] Week 13 (H441GL cells [2]; Week 13): 31.5 ± 5.4 Fold Change
COCC(COCC(COCC(COCCOCCOCCOCCOCCOCCOCCOCCOCCN1CCN(CCCN2c3ccccc3Sc3ccc(Cl)cc32)CC1)OC)OC)OC (stereo not shown) [Compound 25-2a, NDP-[CH2CH2O]n—[CH2CH(OCH3)CH2O]3—CH3]	inhibit cell proliferation	16.8 µM	35.4 µM	16.7 µM	25.6 µM	17.5 µM	13.3 µM	16.8 µM	–	–	–
COCCOCCOCCOCC(COCC(COCC(CN1CCN(CCCN2c3ccccc3Sc3ccc(C(F)(F)F)cc32)CC1)OC)OC)OC (stereo not shown) [Compound 26-1b, NDT-[CH2CH(OCH3)CH2O]3—[CH2CH2O]n—CH3]	inhibit cell proliferation	6.4 µM	–	14.4 µM	12.9 µM	12.1 µM	10.3 µM	20.4 µM	8.5 µM	13.9 µM	–
